Reference: patent publication US10800791B2, “Triazole ACC inhibitors and uses thereof” (Gilead Apollo, LLC, priority 2015, dated 2020)
In brackets after ≈: the same amount, converted by molar mass. Where two headings read alike, the source gives them in different places.

Key:
[1] = system: Fusarium moniliforme (Fm); assay: Growth inhibition assay of fungal pathogens, Fm; format: cell-based; conditions: Fusarium verticillioides, 48 h, read-out: Concentration at 90% Inhibition Fm
Outline: (§1)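 Percent inhibition derived at 48 hours from OD600 and visual scores versus 2% DMSO control, with media+DMSO blank as background. Spore inocula in 17% V8 medium were sized from 48 h growth curves; compounds tested at final 50/10/2 or 2/0.4/0.08 ppm.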

Rhizoctonia solani (Rs) = assay: Growth inhibition assay of fungal pathogens, Rs; format: cell-based; conditions: 48 h
[2] = system: Collectotrichum graminicola (Cg); assay: Growth inhibition assay of fungal pathogens, Cg; format: cell-based; conditions: 48 h, growth inhibition at 48 hours vs 2% DMSO control
Outline: as §1

Diplodia maydis (Dm) = assay: Growth inhibition assay of fungal pathogens, Dm; format: cell-based; conditions: Stenocarpella maydis, 48 h, growth inhibition at 48 hours vs 2% DMSO control
Outline: as §1

C. krusei = assay: Antifungal Activity Assay (broth microtiter MIC), C. krusei; format: cell-based, Candida krusei; conditions: Pichia kudriavzevii, ATCC6258, 48 h
Outline: (§2)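 Endpoint: lowest concentration visibly inhibiting growth relative to control after 48 h. Inoculum of 2.5×10^3 CFU/mL final in RPMI 1640+MOPS, prepared from overnight 35° C agar cultures; test compounds diluted in water to 128 μg/mL before plating.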

fungal (fACC2) = fungal (fACC2) (UniProt Q00955); conditions: read-out: fACC2 (in vitro ACC2 Inhibition Assay, IC50); Table 2b, additional results; ADP-Glo, 5 nM ACC2, 20 μM ATP, 20 μM acetyl-CoA
Septoria tritici (St) = assay: Growth inhibition assay of fungal pathogens, St; format: cell-based; conditions: Zymoseptoria tritici, 48 h, growth inhibition at 48 hours vs 2% DMSO control
Outline: as §1

C. albicans = assay: Antifungal Activity Assay (broth microtiter MIC), C. albicans; format: cell-based, Candida albicans; conditions: Candida albicans, ATCC90028, 48 h
Outline: as §2

Botrtyis cinerea (Bc) = assay: Growth inhibition assay of fungal pathogens, Bc; format: cell-based; conditions: 48 h, growth inhibition at 48 hours vs 2% DMSO control
Outline: as §1

[3] = system: Phytophthora capsici (Pc); assay: Growth inhibition assay of fungal pathogens, Pc; format: cell-based; conditions: 48 h
Outline: as §1

C. parapsilosis = assay: Antifungal Activity Assay (broth microtiter MIC), C. parapsilosis; format: cell-based, Candida parapsilosis; conditions: Lodderomyces parapsilosis, ATCC22019, 48 h
Outline: as §2

[4] = system: Fusarium virguliforme (Fv); assay: Growth inhibition assay of fungal pathogens, Fv; format: cell-based; conditions: 48 h
Outline: as §1

human (hACC2) = human (hACC2) (Homo sapiens, UniProt O00763); assay: In vitro ACC inhibition assay (ADP-Glo), hACC2; format: biochemical; conditions: Table 2b, additional results, 5 nM ACC2, 20 μM ATP, 20 μM acetyl-CoA
Protocol: The detailed procedure is as follows. […] 10 μL ADP glo reagent was added. […] 20 μL kinase detection reagent was added.

[5] = read-out: Concentration at 90% Inhibition Rs, Rhizoctonia solani, mycelial plugs, growth inhibition at 48 hours vs 2% DMSO control
[6] = read-out: Concentration at 90% Inhibition Cg, Collectotrichum graminicola
[7] = read-out: Concentration at 90% Inhibition Dm, Diplodia maydis
[8] = read-out: MIC, C. krusei ATCC 6258, Table 3b (additional results), 3 replicates, MIC recorded at 48 h
[9] = read-out: Concentration at 90% Inhibition St, Septoria tritici
[10] = read-out: MIC, C. albicans ATCC 90028, Table 3b (additional results), 3 replicates, MIC recorded at 48 h
[11] = read-out: Concentration at 90% Inhibition Bc, Botrtyis cinerea
[12] = read-out: Concentration at 90% Inhibition Pc, Phytophthora capsici, growth inhibition at 48 hours vs 2% DMSO control
[13] = read-out: MIC, C. parapsilosis ATCC 22019, Table 3b (additional results), 3 replicates, MIC recorded at 48 h
[14] = read-out: Concentration at 90% Inhibition Fv, Fusarium virguliforme, growth inhibition at 48 hours vs 2% DMSO control
[15] = Fusarium moniliforme, growth inhibition at 48 hours vs 2% DMSO control
[16] = mycelial plugs, growth inhibition at 48 hours vs 2% DMSO control, read-out: Concentration at 90% Inhibition Rs
[17] = Collectotrichum graminicola, read-out: Concentration at 90% Inhibition Cg
[18] = Diplodia maydis, read-out: Concentration at 90% Inhibition Dm
[19] = Table 3b (additional results), ATCC 6258, 3 replicates, MIC recorded at 48 h, read-out: MIC, C. krusei ATCC 6258
[20] = Septoria tritici, read-out: Concentration at 90% Inhibition St
[21] = Table 3b (additional results), ATCC 90028, 3 replicates, MIC recorded at 48 h, read-out: MIC, C. albicans ATCC 90028
[22] = Botrtyis cinerea, read-out: Concentration at 90% Inhibition Bc
[23] = growth inhibition at 48 hours vs 2% DMSO control, read-out: Concentration at 90% Inhibition Pc
[24] = Table 3b (additional results), ATCC 22019, 3 replicates, MIC recorded at 48 h, read-out: MIC, C. parapsilosis ATCC 22019
[25] = growth inhibition at 48 hours vs 2% DMSO control, read-out: Concentration at 90% Inhibition Fv

Sequence of fungal (fACC2) (Q00955 whole entry): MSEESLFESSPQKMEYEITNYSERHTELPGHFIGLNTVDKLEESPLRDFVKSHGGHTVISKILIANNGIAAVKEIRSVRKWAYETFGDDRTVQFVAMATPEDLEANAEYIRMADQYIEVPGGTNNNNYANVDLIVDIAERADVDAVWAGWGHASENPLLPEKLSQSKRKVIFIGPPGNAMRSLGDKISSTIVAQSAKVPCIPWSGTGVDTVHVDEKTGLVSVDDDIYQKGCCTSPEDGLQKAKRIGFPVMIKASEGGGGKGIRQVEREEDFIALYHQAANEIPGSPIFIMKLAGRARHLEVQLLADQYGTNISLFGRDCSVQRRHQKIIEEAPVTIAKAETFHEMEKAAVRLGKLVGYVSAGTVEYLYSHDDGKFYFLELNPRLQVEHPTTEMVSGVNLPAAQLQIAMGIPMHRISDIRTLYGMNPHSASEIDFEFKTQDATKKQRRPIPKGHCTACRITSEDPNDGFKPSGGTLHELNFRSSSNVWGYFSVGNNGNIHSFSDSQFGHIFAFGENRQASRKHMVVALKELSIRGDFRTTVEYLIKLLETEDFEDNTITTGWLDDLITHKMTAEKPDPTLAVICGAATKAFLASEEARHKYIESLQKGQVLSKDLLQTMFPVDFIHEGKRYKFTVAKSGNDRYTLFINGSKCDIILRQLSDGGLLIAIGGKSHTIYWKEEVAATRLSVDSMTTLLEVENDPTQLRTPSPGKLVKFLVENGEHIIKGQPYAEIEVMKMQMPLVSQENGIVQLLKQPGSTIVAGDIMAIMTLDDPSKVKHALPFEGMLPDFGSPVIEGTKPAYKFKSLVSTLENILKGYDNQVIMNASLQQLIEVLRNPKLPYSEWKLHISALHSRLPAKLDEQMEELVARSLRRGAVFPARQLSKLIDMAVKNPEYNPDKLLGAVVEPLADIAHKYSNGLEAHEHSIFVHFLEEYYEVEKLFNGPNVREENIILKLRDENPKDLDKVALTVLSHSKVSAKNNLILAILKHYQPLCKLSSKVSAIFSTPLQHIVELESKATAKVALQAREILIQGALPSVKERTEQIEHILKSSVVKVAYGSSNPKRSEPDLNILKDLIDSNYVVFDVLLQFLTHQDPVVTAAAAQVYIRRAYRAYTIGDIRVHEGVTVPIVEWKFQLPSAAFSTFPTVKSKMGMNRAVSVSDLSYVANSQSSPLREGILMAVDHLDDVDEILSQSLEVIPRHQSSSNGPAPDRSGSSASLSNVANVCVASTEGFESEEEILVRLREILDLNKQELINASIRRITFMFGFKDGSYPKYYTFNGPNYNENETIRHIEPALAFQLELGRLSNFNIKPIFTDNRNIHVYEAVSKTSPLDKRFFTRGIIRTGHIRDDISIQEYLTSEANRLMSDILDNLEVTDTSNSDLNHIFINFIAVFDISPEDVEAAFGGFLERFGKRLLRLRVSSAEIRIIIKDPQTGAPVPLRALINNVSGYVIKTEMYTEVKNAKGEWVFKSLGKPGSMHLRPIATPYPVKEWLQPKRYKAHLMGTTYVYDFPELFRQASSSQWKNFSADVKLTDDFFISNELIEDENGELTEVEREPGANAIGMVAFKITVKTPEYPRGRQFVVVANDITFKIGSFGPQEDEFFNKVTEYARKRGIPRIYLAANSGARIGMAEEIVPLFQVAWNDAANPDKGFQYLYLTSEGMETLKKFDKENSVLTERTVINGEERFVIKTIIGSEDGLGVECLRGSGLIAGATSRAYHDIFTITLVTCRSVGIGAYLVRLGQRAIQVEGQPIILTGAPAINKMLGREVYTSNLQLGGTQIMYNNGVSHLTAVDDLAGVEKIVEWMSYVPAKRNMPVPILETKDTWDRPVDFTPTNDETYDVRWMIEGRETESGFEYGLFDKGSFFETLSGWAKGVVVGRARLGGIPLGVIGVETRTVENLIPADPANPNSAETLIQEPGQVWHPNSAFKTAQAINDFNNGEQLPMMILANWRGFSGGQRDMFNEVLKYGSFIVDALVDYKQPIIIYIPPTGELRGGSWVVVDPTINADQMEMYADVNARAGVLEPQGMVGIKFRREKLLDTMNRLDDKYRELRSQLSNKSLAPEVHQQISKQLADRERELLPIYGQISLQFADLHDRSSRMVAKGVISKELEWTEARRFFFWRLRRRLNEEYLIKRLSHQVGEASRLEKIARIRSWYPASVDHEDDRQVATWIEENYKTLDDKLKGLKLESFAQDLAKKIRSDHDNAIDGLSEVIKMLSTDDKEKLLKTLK
Sequence of human (hACC2) (O00763 whole entry): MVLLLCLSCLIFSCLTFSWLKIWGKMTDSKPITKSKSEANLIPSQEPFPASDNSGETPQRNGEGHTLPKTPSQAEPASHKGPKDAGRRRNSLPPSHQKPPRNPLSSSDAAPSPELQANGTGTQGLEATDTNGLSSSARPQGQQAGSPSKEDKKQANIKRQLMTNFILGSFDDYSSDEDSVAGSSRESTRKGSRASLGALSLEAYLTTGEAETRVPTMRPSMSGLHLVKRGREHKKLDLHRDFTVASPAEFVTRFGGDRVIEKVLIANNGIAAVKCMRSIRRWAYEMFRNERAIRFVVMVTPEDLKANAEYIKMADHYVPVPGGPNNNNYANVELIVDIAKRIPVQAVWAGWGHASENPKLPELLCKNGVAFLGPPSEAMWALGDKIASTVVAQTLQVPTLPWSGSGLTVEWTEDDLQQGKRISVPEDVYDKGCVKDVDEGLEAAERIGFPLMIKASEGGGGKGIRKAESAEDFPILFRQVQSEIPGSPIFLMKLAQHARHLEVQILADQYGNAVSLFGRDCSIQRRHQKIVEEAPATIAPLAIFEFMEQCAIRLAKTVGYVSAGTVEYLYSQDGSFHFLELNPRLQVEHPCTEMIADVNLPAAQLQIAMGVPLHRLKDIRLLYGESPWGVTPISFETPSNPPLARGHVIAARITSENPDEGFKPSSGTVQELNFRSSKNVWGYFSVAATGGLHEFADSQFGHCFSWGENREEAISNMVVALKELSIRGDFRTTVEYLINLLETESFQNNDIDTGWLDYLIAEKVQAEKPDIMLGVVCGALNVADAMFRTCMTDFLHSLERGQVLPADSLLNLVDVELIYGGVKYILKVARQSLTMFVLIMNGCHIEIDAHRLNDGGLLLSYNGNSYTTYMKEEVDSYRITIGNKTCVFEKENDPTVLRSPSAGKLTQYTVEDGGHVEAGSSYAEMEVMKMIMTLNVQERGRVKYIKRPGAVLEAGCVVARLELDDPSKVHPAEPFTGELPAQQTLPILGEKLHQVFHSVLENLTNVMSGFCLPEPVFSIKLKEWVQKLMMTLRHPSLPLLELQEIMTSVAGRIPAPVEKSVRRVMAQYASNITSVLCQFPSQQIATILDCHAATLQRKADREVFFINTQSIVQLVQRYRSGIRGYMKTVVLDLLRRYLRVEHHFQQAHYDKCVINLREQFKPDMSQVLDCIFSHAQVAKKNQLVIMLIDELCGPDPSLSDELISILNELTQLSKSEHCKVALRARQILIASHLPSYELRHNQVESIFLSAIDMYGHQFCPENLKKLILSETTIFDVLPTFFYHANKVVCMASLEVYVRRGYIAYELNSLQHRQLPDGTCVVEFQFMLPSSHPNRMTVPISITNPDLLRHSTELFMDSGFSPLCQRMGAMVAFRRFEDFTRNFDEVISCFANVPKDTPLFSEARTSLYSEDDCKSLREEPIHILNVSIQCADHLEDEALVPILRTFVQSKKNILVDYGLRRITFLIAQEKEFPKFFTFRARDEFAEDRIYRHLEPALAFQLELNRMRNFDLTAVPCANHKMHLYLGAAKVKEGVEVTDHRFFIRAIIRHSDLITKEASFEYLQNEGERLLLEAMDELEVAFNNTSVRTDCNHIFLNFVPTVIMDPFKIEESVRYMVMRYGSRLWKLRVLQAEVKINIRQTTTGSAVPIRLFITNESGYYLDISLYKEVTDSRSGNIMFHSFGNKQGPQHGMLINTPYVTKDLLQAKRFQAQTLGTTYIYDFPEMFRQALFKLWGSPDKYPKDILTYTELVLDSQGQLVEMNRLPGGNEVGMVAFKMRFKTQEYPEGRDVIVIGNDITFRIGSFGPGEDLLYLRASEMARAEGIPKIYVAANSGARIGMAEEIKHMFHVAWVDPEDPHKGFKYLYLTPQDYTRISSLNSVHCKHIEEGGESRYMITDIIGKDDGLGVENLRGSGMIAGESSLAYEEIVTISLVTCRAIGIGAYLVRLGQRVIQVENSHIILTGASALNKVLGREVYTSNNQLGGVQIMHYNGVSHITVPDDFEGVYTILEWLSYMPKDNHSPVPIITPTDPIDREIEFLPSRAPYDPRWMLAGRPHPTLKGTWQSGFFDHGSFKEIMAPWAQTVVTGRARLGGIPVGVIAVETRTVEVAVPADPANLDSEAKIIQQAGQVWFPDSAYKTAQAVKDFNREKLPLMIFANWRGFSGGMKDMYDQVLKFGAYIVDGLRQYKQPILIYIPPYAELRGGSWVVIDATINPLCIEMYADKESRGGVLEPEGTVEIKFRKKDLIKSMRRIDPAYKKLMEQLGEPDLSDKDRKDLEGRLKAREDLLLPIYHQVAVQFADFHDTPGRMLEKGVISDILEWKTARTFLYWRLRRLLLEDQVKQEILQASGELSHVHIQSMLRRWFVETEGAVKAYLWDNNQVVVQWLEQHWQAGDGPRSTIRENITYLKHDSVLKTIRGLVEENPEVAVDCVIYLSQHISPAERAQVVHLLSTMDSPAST

Row | SMILES | IC90 [1] | IC90 (Rhizoctonia solani (Rs); [5]) | IC90 [2, 6] | IC90 (Diplodia maydis (Dm); [7]) | MIC (C. krusei; [8]) | IC50 (fungal (fACC2)) | IC90 (Septoria tritici (St); [9]) | MIC (C. albicans; [10]) | IC90 (Botrtyis cinerea (Bc); [11]) | IC90 [3, 12] | MIC (C. parapsilosis; [13]) | IC90 [4, 14] | IC50 (human (hACC2)) | IC90 [1, 15] | IC90 (Rhizoctonia solani (Rs); [16]) | IC90 [2, 17] | IC90 (Diplodia maydis (Dm); [18]) | MIC (C. krusei; [19]) | IC90 (Septoria tritici (St); [20]) | MIC (C. albicans; [21]) | also measured
1 | Cc1c(-n2nccn2)sc2c1c(=O)n(C(C)(C)C(=O)NC1CCC1)c(=O)n2C[C@H](OC(C)C)c1cc(F)ccc1OCC#N [Compound I-221] | 0.08 µg/mL (≈ 0.128 µM) | 0.4 µg/mL (≈ 0.641 µM) | 2 µg/mL (≈ 3.21 µM) | 2 µg/mL (≈ 3.21 µM) | 0.25 to 1 µg/mL (≈ 0.401 to 1.6 µM) | 0.3 to 1 nM | > 50 µg/mL | 1.01 to 2 µg/mL (≈ 1.62 to 3.21 µM) | 0.4 µg/mL (≈ 0.641 µM) | > 50 µg/mL | 0.25 to 1 µg/mL (≈ 0.401 to 1.6 µM) | 0.4 µg/mL (≈ 0.641 µM) | 5 to 10 nM |  |  |  |  |  |  |  | 
2 | Cc1c(-n2nccn2)sc2c1c(=O)n(C(C)(C)C(=O)NC(C)C)c(=O)n2C[C@H](O[C@H]1CC[C@@H](O)CC1)c1cc(F)ccc1OCC#N [Compound I-222] | 0.08 µg/mL (≈ 0.12 µM) | 0.4 µg/mL (≈ 0.599 µM) | 2 µg/mL (≈ 3 µM) | 0.4 µg/mL (≈ 0.599 µM) | 0.25 to 1 µg/mL (≈ 0.374 to 1.5 µM) | 0.3 to 1 nM | > 50 µg/mL | 0.25 to 1 µg/mL (≈ 0.374 to 1.5 µM) | 2 µg/mL (≈ 3 µM) | > 50 µg/mL | 0.25 to 1 µg/mL (≈ 0.374 to 1.5 µM) | 2 µg/mL (≈ 3 µM) | 5 to 10 nM |  |  |  |  |  |  |  | 
3 | COc1ccc(C#N)cc1[C@H](Cn1c(=O)n(C(C)(C)C(=O)NC(C)C)c(=O)c2c(C)c(-n3nccn3)sc21)OCC(C)(C)C#N [Compound I-223] |  |  |  |  |  | 1 to 5 nM |  |  |  |  |  |  | 10 to 40 nM | 0.4 µg/mL (≈ 0.632 µM) | 2 µg/mL (≈ 3.16 µM) | > 50 µg/mL | > 50 µg/mL | 0.25 to 1 µg/mL (≈ 0.395 to 1.58 µM) | > 50 µg/mL | 0.25 to 1 µg/mL (≈ 0.395 to 1.58 µM) | IC90 (Botrtyis cinerea (Bc); [22]): 10 µg/mL (≈ 15.8 µM); IC90 [3, 23]: > 50 µg/mL; MIC (C. parapsilosis; [24]): 1.01 to 2 µg/mL (≈ 1.6 to 3.16 µM); IC90 [4, 25]: 10 µg/mL (≈ 15.8 µM)
4 | COc1ccc(Br)cc1[C@H](Cn1c(=O)n(C(C)(C)C(=O)NC(C)C)c(=O)c2c(C)c(-n3nccn3)sc21)OCC(C)(C)C#N [Compound I-224] |  |  |  |  |  | 1 to 5 nM |  |  |  |  |  |  | 5 to 10 nM | 0.08 µg/mL (≈ 0.117 µM) | > 50 µg/mL | 2 µg/mL (≈ 2.91 µM) | 2 µg/mL (≈ 2.91 µM) | 0.25 to 1 µg/mL (≈ 0.364 to 1.46 µM) | > 50 µg/mL | 0.25 to 1 µg/mL (≈ 0.364 to 1.46 µM) | IC90 (Botrtyis cinerea (Bc); [22]): 0.4 µg/mL (≈ 0.583 µM); IC90 [3, 23]: > 50 µg/mL; MIC (C. parapsilosis; [24]): 1.01 to 2 µg/mL (≈ 1.47 to 2.91 µM); IC90 [4, 25]: 0.4 µg/mL (≈ 0.583 µM)
5 | COc1ccc(F)cc1[C@@](O)(CO)Cn1c(=O)n(C(C)(C)C(=O)NC(C)C)c(=O)c2c(C)c(-n3nccn3)sc21 [Compound I-225] | 0.08 µg/mL (≈ 0.139 µM) | 0.08 µg/mL (≈ 0.139 µM) | 0.08 µg/mL (≈ 0.139 µM) | 0.4 µg/mL (≈ 0.696 µM) | 0.25 to 1 µg/mL (≈ 0.435 to 1.74 µM) | 1 to 5 nM | > 50 µg/mL | 0.25 to 1 µg/mL (≈ 0.435 to 1.74 µM) | 0.4 µg/mL (≈ 0.696 µM) | 2 µg/mL (≈ 3.48 µM) | 1.01 to 2 µg/mL (≈ 1.76 to 3.48 µM) | 0.4 µg/mL (≈ 0.696 µM) | 5 to 10 nM |  |  |  |  |  |  |  | 
6 | Cc1c(-n2nccn2)sc2c1c(=O)n(C(C)(C)C(=O)NC(C)C)c(=O)n2C[C@H](OCCO)c1cc(F)ccc1O [Compound I-226] |  |  |  |  |  | 0.3 to 1 nM |  |  |  |  |  |  | 10 to 40 nM | 2 µg/mL (≈ 3.48 µM) | 2 µg/mL (≈ 3.48 µM) | 10 µg/mL (≈ 17.4 µM) | > 50 µg/mL | 1.01 to 2 µg/mL (≈ 1.76 to 3.48 µM) | > 50 µg/mL | 2.01 to 4 µg/mL (≈ 3.5 to 6.96 µM) | IC90 (Botrtyis cinerea (Bc); [22]): 10 µg/mL (≈ 17.4 µM); IC90 [3, 23]: > 50 µg/mL; MIC (C. parapsilosis; [24]): 2.01 to 4 µg/mL (≈ 3.5 to 6.96 µM); IC90 [4, 25]: 10 µg/mL (≈ 17.4 µM)
